# Source: ChEMBL document CHEMBL1201862, “PubChem BioAssay data set” (2004)
# Activity calls are given as the source filed them.
# What was measured:
# [1] = biological target: DNA repair and recombination protein RAD54-like (Homo sapiens, UniProt Q92698); experiment: RAD54 Holliday junction migration blockers – biochemical, fluorescence, cherry-picked samples, dose series, confirmation (AID 651657); type: functional
# [2] = tested on: HEK293; experiment: HEK293T cell viability loss, resazurin readout – resazurin fluorescence, cytotoxicity control for NF-kB activator project, SAR follow-up (AID 493251); type: functional, cell-based; conditions: Homo sapiens
# [3] = tested on: HEK293; experiment: SAR Analysis of small molecule inhibitors of B-cell specific antigen receptor-induced NF-kB activation in a HEK-293T cell line using a luminescence assay - Set 2. [Related pubchem assays (depositor defined):AID435022, AID435025, AID489021]; type: functional, cell-based; conditions: Homo sapiens
# [4] = tested on: Jurkat; experiment: SAR Analysis of small molecule inhibitors of […] specific antigen receptor-induced NF-kB activation in a Jurkat cell line using a luminescence assay - Set 3. [Related pubchem assays (depositor defined):AID435022, AID435025, AID465]; type: functional, cell-based; conditions: Homo sapiens
# [5] = biological target: T1, Dual specificity protein phosphatase 3 (Homo sapiens, UniProt P51452); experiment: SAR VHR1 Fluorescent Assay for In Vitro dose response studies Set 3. [Related pubchem assays (depositor defined):AID1654, AID1661, AID1878]; type: functional
# T1 sequence (P51452 whole entry): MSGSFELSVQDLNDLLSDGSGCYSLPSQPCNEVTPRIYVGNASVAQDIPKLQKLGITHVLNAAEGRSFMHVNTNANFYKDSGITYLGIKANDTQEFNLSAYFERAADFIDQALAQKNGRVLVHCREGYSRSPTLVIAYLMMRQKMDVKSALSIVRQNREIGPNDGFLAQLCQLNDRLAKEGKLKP
# [6] = biological target: T1, Dual specificity protein phosphatase 3; experiment: VHR phosphatase inhibition, dose response, selectivity assay for STEP inhibitor project, biochemical (AID 602374); type: functional; conditions: read-out: IC50_Mean
# [7] = biological target: Tyrosine-protein phosphatase non-receptor type 11 (Homo sapiens, UniProt Q06124); experiment: PTPN11 enzyme inhibitors – biochemical, selectivity assay for STEP inhibitor project, dose response (AID 602367); type: functional; conditions: read-out: IC50_Mean
# Sequence of Tyrosine-protein phosphatase non-receptor type 11 (Q06124 whole entry): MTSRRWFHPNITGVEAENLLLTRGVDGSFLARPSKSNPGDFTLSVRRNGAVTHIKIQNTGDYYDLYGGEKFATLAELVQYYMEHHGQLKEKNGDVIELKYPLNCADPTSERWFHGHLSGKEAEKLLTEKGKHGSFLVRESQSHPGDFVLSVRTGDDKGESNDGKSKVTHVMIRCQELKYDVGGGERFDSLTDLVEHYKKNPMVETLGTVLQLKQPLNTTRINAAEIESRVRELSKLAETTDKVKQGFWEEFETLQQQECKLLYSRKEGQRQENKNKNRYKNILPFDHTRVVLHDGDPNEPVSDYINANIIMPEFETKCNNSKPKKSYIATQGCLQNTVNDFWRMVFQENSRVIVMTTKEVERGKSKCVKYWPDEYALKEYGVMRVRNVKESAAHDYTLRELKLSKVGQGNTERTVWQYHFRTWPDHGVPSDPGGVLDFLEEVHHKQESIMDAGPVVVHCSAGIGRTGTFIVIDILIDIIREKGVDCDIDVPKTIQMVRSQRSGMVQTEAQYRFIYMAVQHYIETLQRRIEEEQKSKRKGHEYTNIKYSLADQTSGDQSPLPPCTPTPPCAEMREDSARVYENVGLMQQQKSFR
# [8] = biological target: Tyrosine-protein phosphatase non-receptor type 5 (Homo sapiens, UniProt P54829); experiment: PTPN5 enzyme inhibition – biochemical, fluorescence intensity, uHTS hits, confirmation (AID 602372); type: functional; conditions: read-out: IC50_Mean
# Sequence of Tyrosine-protein phosphatase non-receptor type 5 (P54829 whole entry): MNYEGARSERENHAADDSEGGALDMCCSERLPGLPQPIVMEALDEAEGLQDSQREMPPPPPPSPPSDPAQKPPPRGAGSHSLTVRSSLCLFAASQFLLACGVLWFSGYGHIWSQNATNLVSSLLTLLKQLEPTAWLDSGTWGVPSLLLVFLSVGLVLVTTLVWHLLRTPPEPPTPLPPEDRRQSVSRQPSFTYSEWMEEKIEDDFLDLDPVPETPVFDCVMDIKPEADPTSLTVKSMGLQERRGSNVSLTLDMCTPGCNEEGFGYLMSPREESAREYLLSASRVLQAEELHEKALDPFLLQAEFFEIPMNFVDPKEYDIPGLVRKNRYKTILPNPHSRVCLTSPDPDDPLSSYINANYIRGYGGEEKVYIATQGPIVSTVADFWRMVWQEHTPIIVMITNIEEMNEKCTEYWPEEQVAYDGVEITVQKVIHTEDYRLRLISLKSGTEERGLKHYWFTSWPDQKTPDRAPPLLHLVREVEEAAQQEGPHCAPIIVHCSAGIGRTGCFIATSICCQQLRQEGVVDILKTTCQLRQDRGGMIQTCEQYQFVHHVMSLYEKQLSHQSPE
# [9] = biological target: T2, Mitochondrial peptide methionine sulfoxide reductase (Bos taurus, UniProt P54149); type: functional;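 further: absorbance read-out, biochemical high-throughput dose-response screen for MsrA inhibitors, confirmatory; recombinant bovine MsrA coupled to E. coli TrxB with NADPH and selenocystamine; potency is for inhibitors of MsrA activity on DMSO substrate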
# T2 sequence (P54149 whole entry): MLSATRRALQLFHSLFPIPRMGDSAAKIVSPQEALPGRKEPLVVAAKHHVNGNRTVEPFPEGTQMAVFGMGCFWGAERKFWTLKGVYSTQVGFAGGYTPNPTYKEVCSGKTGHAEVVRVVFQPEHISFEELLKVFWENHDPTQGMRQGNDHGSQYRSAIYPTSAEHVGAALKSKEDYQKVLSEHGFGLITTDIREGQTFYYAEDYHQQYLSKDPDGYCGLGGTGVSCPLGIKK
# [10] = biological target: Serine/threonine-protein kinase pim-1 (Homo sapiens, UniProt P11309); type: functional
# Sequence of Serine/threonine-protein kinase pim-1 (P11309 whole entry): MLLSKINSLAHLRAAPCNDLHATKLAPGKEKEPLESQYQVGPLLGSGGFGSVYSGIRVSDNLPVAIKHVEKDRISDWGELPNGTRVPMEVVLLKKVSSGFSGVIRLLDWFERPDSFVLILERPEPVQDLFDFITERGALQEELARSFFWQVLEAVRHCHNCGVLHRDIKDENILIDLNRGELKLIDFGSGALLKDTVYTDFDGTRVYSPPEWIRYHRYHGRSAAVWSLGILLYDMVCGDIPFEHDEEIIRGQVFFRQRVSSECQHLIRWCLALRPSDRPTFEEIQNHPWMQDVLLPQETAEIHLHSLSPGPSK
# [11] = biological target: cAMP-dependent protein kinase catalytic subunit alpha (Homo sapiens, UniProt P17612); type: functional
# [12] = biological target: Interleukin-1 receptor-associated kinase 4 (Homo sapiens, UniProt Q9NWZ3); type: functional
# [13] = biological target: Dual specificity protein kinase CLK4 (Homo sapiens, UniProt Q9HAZ1); type: functional
# [14] = biological target: Glycogen synthase kinase-3 beta (Homo sapiens, UniProt P49841); type: functional;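 further: value comes from a broad kinome profiling panel, with GSK3B as the panel member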
# [15] = biological target: Cell division cycle 7-related protein kinase (Homo sapiens, UniProt O00311); type: functional;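 further: value obtained from a kinome-wide kinase panel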
# Sequence of Cell division cycle 7-related protein kinase (O00311 whole entry): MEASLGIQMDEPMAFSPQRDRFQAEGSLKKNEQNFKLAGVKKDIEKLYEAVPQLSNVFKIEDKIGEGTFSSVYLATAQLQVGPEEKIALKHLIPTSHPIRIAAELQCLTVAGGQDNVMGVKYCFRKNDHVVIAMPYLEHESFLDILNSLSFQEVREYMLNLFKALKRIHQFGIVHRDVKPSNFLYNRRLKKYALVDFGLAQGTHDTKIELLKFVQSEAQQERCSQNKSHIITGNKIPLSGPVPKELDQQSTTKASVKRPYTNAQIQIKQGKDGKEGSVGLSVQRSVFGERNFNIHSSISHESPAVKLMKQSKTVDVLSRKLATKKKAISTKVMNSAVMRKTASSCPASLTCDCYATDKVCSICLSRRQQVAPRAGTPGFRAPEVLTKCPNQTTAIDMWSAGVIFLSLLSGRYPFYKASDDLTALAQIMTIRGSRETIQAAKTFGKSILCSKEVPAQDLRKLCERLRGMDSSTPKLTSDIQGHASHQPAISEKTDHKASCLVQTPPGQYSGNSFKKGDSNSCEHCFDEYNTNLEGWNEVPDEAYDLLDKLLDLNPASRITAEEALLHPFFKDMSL
# [16] = biological target: Homeodomain-interacting protein kinase 2 (Homo sapiens, UniProt Q9H2X6); type: functional;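 further: measured within a kinome-wide kinase profiling panel, HIPK2 being one panel member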
# Sequence of Homeodomain-interacting protein kinase 2 (Q9H2X6 whole entry): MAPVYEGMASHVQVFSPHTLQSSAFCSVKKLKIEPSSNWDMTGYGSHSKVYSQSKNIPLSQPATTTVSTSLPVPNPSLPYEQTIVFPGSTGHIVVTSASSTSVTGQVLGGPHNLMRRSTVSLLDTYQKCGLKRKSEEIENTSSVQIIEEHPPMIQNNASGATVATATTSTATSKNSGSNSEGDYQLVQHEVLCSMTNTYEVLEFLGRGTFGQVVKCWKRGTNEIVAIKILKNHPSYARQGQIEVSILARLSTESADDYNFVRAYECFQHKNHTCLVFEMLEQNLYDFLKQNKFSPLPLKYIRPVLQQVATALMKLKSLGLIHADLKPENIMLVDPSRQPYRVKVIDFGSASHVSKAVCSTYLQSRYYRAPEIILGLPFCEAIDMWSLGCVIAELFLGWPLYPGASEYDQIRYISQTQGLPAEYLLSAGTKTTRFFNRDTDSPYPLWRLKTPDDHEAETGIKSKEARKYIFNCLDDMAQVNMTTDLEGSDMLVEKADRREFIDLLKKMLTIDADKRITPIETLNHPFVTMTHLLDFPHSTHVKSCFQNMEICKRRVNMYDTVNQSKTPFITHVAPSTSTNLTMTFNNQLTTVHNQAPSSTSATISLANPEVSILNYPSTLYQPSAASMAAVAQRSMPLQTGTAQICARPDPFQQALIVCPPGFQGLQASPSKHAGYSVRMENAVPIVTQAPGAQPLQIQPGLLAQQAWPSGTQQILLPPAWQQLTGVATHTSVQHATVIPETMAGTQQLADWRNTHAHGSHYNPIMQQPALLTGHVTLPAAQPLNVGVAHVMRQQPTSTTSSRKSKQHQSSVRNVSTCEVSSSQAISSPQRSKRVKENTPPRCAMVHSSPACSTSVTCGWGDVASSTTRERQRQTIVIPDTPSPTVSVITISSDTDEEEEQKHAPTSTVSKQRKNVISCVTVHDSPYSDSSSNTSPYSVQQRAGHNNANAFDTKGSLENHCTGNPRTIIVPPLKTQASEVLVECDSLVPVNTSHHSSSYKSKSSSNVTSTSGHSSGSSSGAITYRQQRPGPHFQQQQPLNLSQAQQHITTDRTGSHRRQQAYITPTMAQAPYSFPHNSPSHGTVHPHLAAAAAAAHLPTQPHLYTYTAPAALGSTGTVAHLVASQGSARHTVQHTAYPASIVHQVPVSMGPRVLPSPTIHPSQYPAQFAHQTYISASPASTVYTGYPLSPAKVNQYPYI
# [17] = Counterscreen for inhibitors of Trypanosoma brucei methionyl tRNA synthetase (MetRS): Luminescence-based cell-based high throughput dose response assay to identify compounds that are cytotoxic to Jurkat human T lymphocyte cells.; type: functional
# [18] = biological target: T3, Methionyl-tRNA synthetase, putative (Trypanosoma brucei brucei, UniProt Q38C91); type: functional, Trypanosoma brucei brucei strain 927/4 GUTat10.1
# T3 sequence (Q38C91 whole entry): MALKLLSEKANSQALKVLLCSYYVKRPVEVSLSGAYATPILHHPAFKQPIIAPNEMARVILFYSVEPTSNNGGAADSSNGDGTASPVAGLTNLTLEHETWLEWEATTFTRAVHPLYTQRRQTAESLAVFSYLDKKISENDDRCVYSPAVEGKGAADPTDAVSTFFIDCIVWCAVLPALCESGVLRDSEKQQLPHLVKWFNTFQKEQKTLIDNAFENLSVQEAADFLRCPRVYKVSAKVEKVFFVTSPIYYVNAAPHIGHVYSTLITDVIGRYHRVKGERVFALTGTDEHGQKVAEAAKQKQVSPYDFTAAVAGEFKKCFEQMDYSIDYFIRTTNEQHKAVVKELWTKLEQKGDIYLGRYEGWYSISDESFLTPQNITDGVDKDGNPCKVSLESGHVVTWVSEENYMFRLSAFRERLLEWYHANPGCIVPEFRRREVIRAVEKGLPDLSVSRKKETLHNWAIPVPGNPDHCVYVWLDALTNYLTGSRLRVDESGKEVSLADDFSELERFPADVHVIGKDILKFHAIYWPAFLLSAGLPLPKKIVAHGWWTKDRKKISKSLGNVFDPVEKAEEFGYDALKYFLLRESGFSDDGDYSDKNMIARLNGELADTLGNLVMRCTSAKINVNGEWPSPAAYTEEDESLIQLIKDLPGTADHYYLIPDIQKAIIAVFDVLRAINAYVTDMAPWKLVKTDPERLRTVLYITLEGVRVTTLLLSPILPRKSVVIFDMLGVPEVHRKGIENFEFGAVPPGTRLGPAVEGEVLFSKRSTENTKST
# [19] = biological target: T3, Methionyl-tRNA synthetase, putative; type: functional, Trypanosoma brucei brucei strain 927/4 GUTat10.1; remark: listed apart in the source
# [20] = biological target: Adenosylmethionine-8-amino-7-oxononanoate aminotransferase (Mycobacterium tuberculosis, UniProt P9WQ81); experiment: Mycobacterium tuberculosis BioA enzyme inhibitor Measured in Biochemical System Using Plate Reader - 2163-02_Inhibitor_Dose_CherryPick_Activity.; type: functional, Mycobacterium tuberculosis UT205
# [21] = biological target: ADP-ribosylation factor GTPase-activating protein 1 (Rattus norvegicus, UniProt Q62848); experiment: Fluorescence polarization-based biochemical high throughput dose response screening assay to identify inhibitors of ADP-ribosylation factor GTPase activating protein 1 (ARFGAP1).; type: functional
# [22] = tested on: A-375; experiment: proliferation inhibition in MITF-low A375 cells – cell-based, cherry-pick samples, set 2, counter-screen for MITF modulator project, dose response (AID 540335); type: functional; conditions: Homo sapiens
# [23] = tested on: A-375; experiment: MITF: Counter assay: A375 proliferation Measured in Cell-Based System Using Plate Reader - 2084-03_Inhibitor_Dose_DryPowder_Activity. [Related pubchem assays (depositor defined):AID488944]; type: functional; conditions: Homo sapiens
# Sequence of DNA repair and recombination protein RAD54-like (Q92698 whole entry): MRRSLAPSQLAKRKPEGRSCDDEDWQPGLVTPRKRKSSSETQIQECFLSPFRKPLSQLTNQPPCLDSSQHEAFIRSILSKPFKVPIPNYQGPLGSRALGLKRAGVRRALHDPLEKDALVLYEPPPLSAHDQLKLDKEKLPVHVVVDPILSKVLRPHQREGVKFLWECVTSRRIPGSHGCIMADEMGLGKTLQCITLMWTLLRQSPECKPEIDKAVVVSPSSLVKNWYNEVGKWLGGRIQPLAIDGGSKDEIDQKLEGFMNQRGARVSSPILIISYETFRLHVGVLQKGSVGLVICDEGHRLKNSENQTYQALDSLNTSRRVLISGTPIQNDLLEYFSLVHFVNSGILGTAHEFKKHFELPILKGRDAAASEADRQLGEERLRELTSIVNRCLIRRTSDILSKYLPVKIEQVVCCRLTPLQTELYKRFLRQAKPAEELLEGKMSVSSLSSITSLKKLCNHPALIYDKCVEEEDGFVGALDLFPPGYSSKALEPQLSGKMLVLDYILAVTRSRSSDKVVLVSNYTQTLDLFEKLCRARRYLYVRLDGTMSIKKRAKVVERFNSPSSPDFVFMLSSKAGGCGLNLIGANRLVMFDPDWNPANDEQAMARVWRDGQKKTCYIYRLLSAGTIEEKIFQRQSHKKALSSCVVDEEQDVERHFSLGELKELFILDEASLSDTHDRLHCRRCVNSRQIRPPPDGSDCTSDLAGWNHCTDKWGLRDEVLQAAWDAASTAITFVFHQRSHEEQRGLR
structure (smiles),measurement,setting,value
O=C(COc1ccc2c(c1)oc(=O)c1ccccc12)NCCCN1CCOCC1,AC50,[1],29.9 µM (active)
CCOc1ccc(-c2nc(CSCC(=O)N3CCC(C)CC3)c(C)o2)cc1,IC50,[2],30 µM (inactive)
same,IC50,[3],9.87 µM (active)
same,IC50,[4],32.6 µM (inactive)
CC(C)(C)c1ccc(-c2noc(CCC(=O)N3CCCCC3)n2)cc1,IC50,[2],39.7 µM (inactive)
same,IC50,[3],17.4 µM (active)
same,IC50,[4],11.6 µM (active)
COc1ccc(C(=O)NNc2nc3c(OC)cccc3s2)cc1,IC50,[5],> 66 µM (inactive)
O=C(N/N=C/c1cccc(Br)c1)c1ccc(N2CCCC2=O)cc1,IC50,[6],7.56 µM (active)
same,IC50,[7],7.26 µM (active)
same,IC50,[8],11.7 µM (active)
C/C(=N\Nc1ccc(S(N)(=O)=O)cc1[N+](=O)[O-])c1ccc2c(c1)OCO2,IC50,[9],155 µM (inactive)
O=[N+]([O-])c1cccc(-c2nnc3ccc(N4CCCCC4)nn23)c1,Ki,[10],31.6 nM (active)
same,Ki,[11],> 7.94 µM (inactive)
same,Ki,[12],10 µM (active)
same,Ki,[13],10 nM (active)
same,Ki,[14],39.8 nM (active)
same,Ki,[15],6.31 nM (active)
same,Ki,[16],12.6 nM (active)
Cc1c(NS(=O)(=O)c2cccc(C(=O)NCc3cccc(Cl)c3)c2)c(=O)n(-c2ccccc2)n1C,IC50,[17],83.3 µM (inactive)
same,IC50,[18],21.7 µM (inactive)
same,IC50,[19],119 µM (inactive)
COc1cccc(NC(=O)N2C[C@H](O)COC[C@@H]3O[C@@H](CC(=O)N(C)C)CC[C@H]32)c1,AC50,[20],596 nM (active)
CC1CC(C)CN(C(=O)COC(=O)c2cn(C)c3ccccc23)C1 (stereo unspecified),IC50,[21],28.4 µM (inactive)
CN(C)c1ccc(/C=N/N2CCN(c3ccccn3)CC2)cc1,AC50,[22],> 35 µM (active)
same,AC50,[23],> 35 µM (active)
